These are literature values, as cited in patent US20200129471A1, “USE OF CANNABIS TO TREAT FIBROMYALGIA, METHODS AND COMPOSITIONS THEREOF” (ONE WORLD CANNABIS LTD, priority 2015, published 2020).

The conditions of this data set: administered to humans for 30 days.

As to `C=C(C)[C@@H]1CCC(C)=C[C@H]1c1c(O)cc(CCCCC)cc1O` [CBD, cannabidiol], the tolerability result is listed as “tolerated”.
